Results published in PubChem BioAssay AID2393 (NMMLSC, 2010).
pEC50: −log10 of the molar value. The source made the active and inactive calls.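 How the source made its calls: active means none, because compounds meeting the potency rule were filed inconclusive for hitting several proteins; inconclusive means EC50 under 20 µM with over 15% binding change; inactive means the rest.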

Key:
Assay in all cases: small GTPase panel, fluorescent GTP binding blockade – biochemical, Mg buffer, constant GTP, RhoA, Rac1, Cdc42, mechanism study for Ras-family GTPase inhibitor project, profiling panel (AID 2393);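 on pEC50: EC50 marks half change in GTP binding and may reflect gain or loss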
Settings in all cases: GST-GTPase beads, BODIPY-GTP binding, flow cytometry; for GTP binding remaining (% of DMSO): at 100 µM (top of the series)
[1] = biological target: Cell division control protein 42 homolog (Homo sapiens) (UniProt P60953)
[2] = biological target: Ras-related C3 botulinum toxin substrate 1 (Homo sapiens) (UniProt P63000)
[3] = biological target: Transforming protein RhoA (Homo sapiens) (UniProt P61586)

Compound | pEC50 ([1]; Cdc42ACT) | pEC50 ([1]; Cdc42WT) | GTP binding remaining (% of DMSO) ([3]; RhoACT) | GTP binding remaining (% of DMSO) ([3]; RhoWT) | pEC50 ([3]; RhoWT) | GTP binding remaining (% of DMSO) ([1]; Cdc42ACT) | GTP binding remaining (% of DMSO) ([1]; Cdc42WT) | EC50 ([3]; RhoWT) | EC50 ([3]; RhoACT) | EC50 ([1]; Cdc42ACT) | EC50 ([1]; Cdc42WT) | EC50 ([2]; Rac1ACT) | GTP binding remaining (% of DMSO) ([2]; Rac1WT) | GTP binding remaining (% of DMSO) ([2]; Rac1ACT) | pEC50 ([2]; Rac1WT) | EC50 ([2]; Rac1WT)
COc1ccc(C2CC(c3cccs3)=NN2c2ccc(S(N)(=O)=O)cc2)cc1 (stereo not given) | 5.37 | 5.39 | inactive | inactive | – | – | – | – | – | – | – | – | inactive | inactive | – | –
COc1ccc(-c2cc(CCC(=O)N3CCN(c4cc(C)ccc4C)CC3)on2)cc1 | 5.56 | 6.01 | inactive | – | 5.89 | – | – | – | – | – | – | – | – | inactive | 5.56 | –
COc1ccc(-c2noc(CCC(=O)N3CCC(c4cc(C)ccc4C)CC3)n2)cc1 | – | – | inactive | – | – | inactive | inactive | inactive | – | – | – | – | – | inactive | 4.92 | –
COc1ccc(-c2ccc(CCC(=O)N3CCN(c4cc(C)ccc4C)CC3)s2)cc1 | – | – | inactive | inactive | – | inactive | inactive | – | – | – | – | – | inactive | inactive | – | –
COc1ccc(C2CC(c3ccccc3C)=NN2c2ccc(S(N)(=O)=O)cc2)cc1 (stereo not given) | – | – | inactive | inactive | – | inactive | inactive | – | – | – | – | – | inactive | inactive | – | –
COc1ccc(-c2ccc(CCC(=O)N3CCN(c4cc(C)ccc4C)CC3)[nH]2)cc1 | – | – | inactive | inactive | – | inactive | inactive | – | – | – | – | – | inactive | inactive | – | –
COc1ccc(C2CC(C(C)(C)C)=NN2c2ccc(S(N)(=O)=O)cc2)cc1 (stereo not given) | 4.78 | 4.84 | inactive | inactive | – | – | – | – | – | – | – | inactive | inactive | – | – | –
COc1ccc(C2CC(c3ccccc3OC)=NN2c2ccc(S(N)(=O)=O)cc2)cc1 (stereo not given) | 5.28 | 5.25 | inactive | inactive | – | – | – | – | – | – | – | – | inactive | inactive | – | –
COc1ccc(C2CC(c3cccc(C)c3)=NN2c2ccc(S(N)(=O)=O)cc2)cc1 (stereo not given) | 5.73 | 5.68 | inactive | inactive | – | – | – | – | – | – | – | inactive | inactive | – | – | –
COc1ccc(C2CC(c3ccc(C)cc3)=NN2c2ccc(S(N)(=O)=O)cc2)cc1 (stereo not given) | – | – | inactive | inactive | – | – | – | – | – | inactive | inactive | – | inactive | inactive | – | –
COc1ccc(C2CC(C)=NN2c2ccc(S(N)(=O)=O)cc2)cc1 (stereo not given) | – | – | inactive | inactive | – | inactive | inactive | – | – | – | – | inactive | inactive | – | – | –
COc1ccc(C2CC(c3cccc(C(F)(F)F)c3)=NN2c2ccc(S(N)(=O)=O)cc2)cc1 (stereo not given) | – | – | inactive | inactive | – | inactive | inactive | – | – | – | – | – | inactive | inactive | – | –
COc1ccc(C2CC(c3ccc(N(C)C)cc3)=NN2c2ccc(S(N)(=O)=O)cc2)cc1 (stereo not given) | – | – | inactive | inactive | – | inactive | inactive | – | – | – | – | – | inactive | inactive | – | –
COc1ccc(C2CC(c3cccc(OC)c3)=NN2c2ccc(S(N)(=O)=O)cc2)cc1 (stereo not given) | – | 5.72 | inactive | inactive | – | – | – | – | – | inactive | – | – | inactive | inactive | – | –
COc1ccc(C2=NN(c3ccc(S(N)(=O)=O)cc3)C(c3ccc(OC)cc3)C2)cc1 (stereo not given) | – | – | inactive | inactive | – | – | inactive | – | – | inactive | – | – | inactive | inactive | – | –
COc1ccc(C2CC(c3ccc(Br)cc3)=NN2c2ccc(S(N)(=O)=O)cc2)cc1 (stereo not given) | – | – | inactive | inactive | – | inactive | inactive | – | – | – | – | – | inactive | inactive | – | –
COc1ccc(-c2noc(CCC(=O)N3CCN(c4cc(C)ccc4C)CC3)n2)cc1 | – | – | – | – | – | – | – | inactive | inactive | inactive | inactive | – | – | inactive | 5.63 | –
COc1ccc(-c2ccc(CCC(=O)N3CCN(c4cc(C)ccc4C)CC3)o2)cc1 | – | – | inactive | inactive | – | inactive | inactive | – | – | – | – | – | inactive | inactive | – | –
COc1ccc(C2CC(c3ccsc3)=NN2c2ccc(S(N)(=O)=O)cc2)cc1 (stereo not given) | 5.28 | 5.28 | inactive | inactive | – | – | – | – | – | – | – | – | – | inactive | – | inactive
COc1ccc(-c2cc(CCC(=O)N3CCN(c4cc(C)ccc4C)CC3)[nH]n2)cc1 | – | – | inactive | inactive | – | inactive | inactive | – | – | – | – | – | inactive | inactive | – | –

More lines, main results first:

pEC50 ([1]; Cdc42ACT) | pEC50 ([1]; Cdc42WT) | GTP binding remaining (% of DMSO) ([3]; RhoACT) | GTP binding remaining (% of DMSO) ([3]; RhoWT) | pEC50 ([3]; RhoWT) | GTP binding remaining (% of DMSO) ([1]; Cdc42ACT) | GTP binding remaining (% of DMSO) ([1]; Cdc42WT) | EC50 ([3]; RhoWT) | EC50 ([3]; RhoACT) | EC50 ([1]; Cdc42ACT) | EC50 ([1]; Cdc42WT) | Compound | EC50 ([2]; Rac1ACT) | GTP binding remaining (% of DMSO) ([2]; Rac1WT) | GTP binding remaining (% of DMSO) ([2]; Rac1ACT) | pEC50 ([2]; Rac1WT) | EC50 ([2]; Rac1WT)
5.56 | 5.60 | inactive | inactive | – | – | – | – | – | – | – | COc1ccc(C2CC(c3ccccc3)=NN2c2ccc(S(N)(=O)=O)cc2)cc1 (stereo not given) | inactive | inactive | – | – | –
4.88 | 4.87 | inactive | inactive | – | – | – | – | – | – | – | NS(=O)(=O)c1ccc(N2N=C(c3ccccc3)CC2c2ccccc2)cc1 (stereo not given) | – | inactive | inactive | – | –
5.33 | 5.33 | – | inactive | – | – | – | – | inactive | – | – | COc1cccc(C2CC(c3ccccc3)=NN2c2ccc(S(N)(=O)=O)cc2)c1 (stereo not given) | – | inactive | inactive | – | –
4.83 | 4.81 | inactive | inactive | – | – | – | – | – | – | – | Cc1ccccc1C1CC(c2ccccc2)=NN1c1ccc(S(N)(=O)=O)cc1 (stereo not given) | – | inactive | inactive | – | –
5.29 | 5.36 | inactive | inactive | – | – | – | – | – | – | – | Cc1ccc(C2CC(c3ccccc3)=NN2c2ccc(S(N)(=O)=O)cc2)cc1 (stereo not given) | – | – | inactive | – | inactive
5.78 | 5.83 | inactive | inactive | – | – | – | – | – | – | – | NS(=O)(=O)c1ccc(N2N=C(c3ccccc3)CC2c2ccc(Br)cc2)cc1 (stereo not given) | – | – | inactive | – | inactive
– | – | inactive | inactive | – | inactive | – | – | – | – | inactive | NS(=O)(=O)c1ccc(N2N=C(c3ccccc3)CC2c2ccccc2Cl)cc1 (stereo not given) | – | inactive | inactive | – | –
5.23 | 5.16 | inactive | inactive | – | – | – | – | – | – | – | NS(=O)(=O)c1ccc(N2N=C(c3ccccc3)CC2c2cccc(Br)c2)cc1 (stereo not given) | – | inactive | inactive | – | –
5.08 | 5.11 | inactive | inactive | – | – | – | – | – | – | – | Cc1cccc(C2CC(c3ccccc3)=NN2c2ccc(S(N)(=O)=O)cc2)c1 (stereo not given) | – | inactive | inactive | – | –
5.29 | 5.40 | inactive | inactive | – | – | – | – | – | – | – | NS(=O)(=O)c1ccc(N2N=C(c3ccccc3)CC2c2cccc(Cl)c2)cc1 (stereo not given) | inactive | – | – | – | inactive
